Measurements as given in US20170224643A1, “METHOD FOR AVOIDING OR INHIBITION OF DYSKINESIA” (Research Foundation of the City University of New York, priority 2016, published 2017).
“Also recorded” adds a separate entry of the source.

Columns and labels:
[1] = system: unilateral 6-OHDA model of LID; assay: unilateral 6-OHDA model of L-Dopa induced dyskinesia, abnormal induced movements (AIMs) scoring; type: in vivo, mice
Text: (§1) Assessing dopamine hyper-sensitivity in the unilateral 6-OHDA model of LID. The well-established unilateral 6-OHDA model of LIDs was used in which the injection of the neurotoxin results in unilateral DA hypersensitivity due to a greater than 80% DA neuron degeneration, and subsequent dopamine hypersensitivity. Two weeks after 6-OHDA injection, the degree of functional deficits are quantified by assessing contralateral paw use in a “cylinder test” (FIG. 1). In untreated, 6-OHDA injected animals contralateral paw use during rearing at the glass wall is reduced from random (50%, dotted line) due to the dopaminergic lesion and resulting reduced dopamine secretion (FIG. 1, white bars). Upon dopamine substitution by a single dose of L-Dopa contralateral paw use is increased above random (50% dotted line) due to dopamine hypersensitivity that developed in response to reduced dopamine levels (FIG. 1 black bars).
Inhibition of Smo by cyclopamine INCREASES LIDs After the functional assessment of dopaminergic denervation in the 6-OHDA model of LIDS, LIDs are induced by daily injections of L-Dopa (5 mg/kg, IP) for 13 days followed by quantification of dyskinesia. Abnormal movements are assessed for 1 min every 20 min, over a period of 120 min immediately after L-DOPA administration coinciding with the peak of L-Dopa dependent DA release. Abnormal induced movements (AIMs), clearly distinct from natural stereotyped behaviors (i.e., grooming, sniffing, rearing, and gnawing), are classified following a well-established scheme in the field of dyskinesia research into four different subtypes: locomotive (tight contralateral turns), axial (contralateral dystonic posture of the neck and upper body), limb (jerky and fluttering movements of the limb contralateral to the side of the lesion), and orofacial (vacuous jaw movements and tongue protrusions) (Sebastianutto, I., N. Maslava, C. R. Hopkins, and M. A. Cenci, Validation of an improved scale for rating l-DOPA-induced dyskinesia in the mouse and effects of specific dopamine receptor antagonists. Neurobiology of disease, 2016. 96: p. 156-170.). The co-administration of the Smo antagonist cyclopamine (5 mg/kg, IP) together with L-Dopa (5mg/kg, IP) at day 14 results in an approximately 80% increase in LIDs (FIG. 2, black bar) compared to L-Dopa alone (FIG. 2, white bar).
Stimulation of Smo by SAG DECREASES LIDs. Analogous to the experiments testing the inhibition of Smo, the unilateral 6-OHDA model of LIDs was used to test the effect of activating Smo signaling by the agonist SAG (FIG. 5). Two weeks after 6-OHDA injection, LIDs are induced by daily injections of L-Dopa (5 mg/kg, IP) for 16 days. A gradual increase in the display of dyskinesia was observed from day 4 to day 16 (FIG. 5, white bars). Consistent with the hypothesis and conversely to the facilitation of LIDs by the inhibition of Smo signaling, applicant found about a twofold REDUCTION in the display of LIDs upon the co-administration of a L-Dopa dose (5 mg/kg, […] 5, black bar).
Stimulation of Smo by Purmorphamine DECREASES LIDs. Analogous to the experiments testing the inhibition of Smo, the unilateral 6-OHDA model of LIDs was used to test the effect of activating Smo signaling by the agonist Purmorphamine (PUR). Two weeks after 6-OHDA injection, LIDs are induced by daily injections of L-Dopa (5 mg/kg, IP) for 14 days. A gradual increase in the display of dyskinesia was observed from day 4 to day 11 (FIG. 6, white bars). Consistent with the hypothesis and similar to the results with stimulating Smo with SAG and conversely to the facilitation of LIDs by the inhibition of Smo signaling, applicant finds about 40% REDUCTION in the display of LIDs upon the co-administration of a L-Dopa “challenge” dose (20 mg/kg; IP, i.e. 4×the regular dose) together with the Smo agonist Purmorphamine (15 mg/kg, IP) on day 15 (FIG. 6, black bar). […]

[2] = system: two models of LID (unilateral 6-OHDA model and aphakia mouse line); assay: meta-analysis of dyskinesia measurements across two models of LID, ratio over L-Dopa only controls; type: in vivo, mice; details: for effect on dyskinesia (words): 6-OHDA model and aphakia mouse line, compared to controls; for reduction in expression of established dyskinesia over L-Dopa only controls: acute stimulation of Smo, combined across models
Text: Meta-analysis of dyskinesia measurements across two models of LID and three structurally distinct compounds (cyclopamine, SAG, purmorphamine):. A ratiometric expression of LID after treatment with Smo antagonist or agonists over L-Dopa only treated controls allows applicant to present results combined across two distinct models of dyskinesia and three distinct compounds. Setting dyskinesia scores observed in L-Dopa only treated controls as 1 (FIG. 11: dotted line and white bar), we find that inhibition of Smo by cyclopamine results in a 70% INCREASE of dyskinesia (FIG. 11: black bar labeled “a”). Conversely, acute stimulation of Smo by SAG leads to a roughly 2 fold REDUCTION in the expression of established dyskinesia (FIG. 11, black bar labeled “b”) and semi chronic daily dosing with SAG together with L-Dopa (“adjuvants” strategy) leads to about 70% reduction in the formation and display of LIDs (FIG. 11, black bar labeled “c” Consistent and similar to the effect of SAGthe acute stimulation of Smo with Purmorphamine leads to a roughly 2 fold REDUCTION in the display of established LID (FIG. 11, black bar labeled “d”).

[3] = system: aphakia mouse line, a genetic model of LID; assay: aphakia mouse model of LID, three paw dyskinesia scoring; type: in vivo, mice; details: for effect on AIMs induced by daily L-Dopa: aphakia mouse line
Text: Inhibition of Smo by cyclopamine in thegenetic “aphakia ” model of dyskinesia INCREASES LIDs. Analogous to the use of the unilateral 6-OHDA model of LID, we tested whether Shh signaling effects the formation and display of LID in an independent, genetic model, the well-studied Aphakia mouse model. […] The hypo-dopaminergic state of these animals is thought to be similar to the dopaminergic state of Parkinson's disease patients. It is well established that these mice readily develop LID upon semi chronic dosing with L-Dopa. […] Daily systemic injections of L-Dopa (20 mg/kg, IP) results in progressive display of 3 paw dyskinesia over 7 days (FIG. 3, white bars. Co-injection of cyclopamine (5 mg/kg, IP) together with L-Dopa (20 mg/kg, IP) on day 8 results in a roughly 3 fold increase in 3-paw dyskinesia compared to day 7 (FIG. 3, see d8, black bar). Further daily co-injections of cyclopamine together with L-Dopa (5 mg/kg, IP and 20 mg/kg, IP, resp.) results in further increases in dyskinesia scores reaching 7 fold the score obtained after 7 days of L-Dopa only dosing (FIG. 3, see d11, black bar compared to d7, white bar).
Stimulation of Smo by SAG in a genetic model of dyskinesia DECREASES LIDs. Analogous to testing the effect of cyclopamine, we used the aphakia mouse line to determine whether stimulation of Shh signaling might reduce the display of established LID. We injected daily for 28 days L-Dopa (20 mg/kg; IP). On day 29 we co-injected SAG (20 mg/kg, IP) together with L-Dopa (20 mg/kg, IP). We scored 3 paw dyskinesia at day 28 (FIG. 9: white bar) and day 29 (FIG. 9: black bar) and find a roughly 2 fold reduction in dyskinesia upon SAG dosing.
Movement disorders: official journal of the Movement Disorder Society, 2015. 30(6): p. 788-95.). Analogous to testing the effects of the stimulation of Smo by SAG in the aphakia mouse model of dyskinesia described above we injected daily L-Dopa (25 mg/kg, IP) for 21 days. All animals developed robust dyskinesia scores. On day 21 animals were randomly assigned into 4 groups.

[4] = system: Shh-nLacZ^C/C/Dat-Cre mice; assay: L-Dopa induced dyskinesia in mice with genetic ablation of Shh from dopamine neurons; type: in vivo
[5] = system: unilateral 6-OHDA lesioned animals; assay: cylinder test of contralateral paw use after unilateral 6-OHDA lesion; type: in vivo, mice; details: single dose L-Dopa 5 mg/kg IP; random = 50%
Procedure: FIG. 1 depicts assessment of 6-OHDA induced dopaminergic lesion. All animals of cohorts A and B were lesioned unilaterally by stereotactic injection of 6-OHDA into the dorso-lateral striatum. White bars: saline injected, black bars: L-dopa (5 mg/kg, IP) injected. Unilateral striatal 6-OHDA injection results in […] dopamine hypersensitivity. (**=p<0.001, ***=p<0.0001, t-test; n=9-11/treatment group; mean±SEM);
as §1

Parkinson's Patients = details: Pahwa et al. 2015; cited from earlier work

SMILES: c1ccc2c(Oc3nc(Nc4ccc(N5CCOCC5)cc4)c4ncn(C5CCCCC5)c4n3)cccc2c1 [Purmorphamine]
- reduction in the display of LIDs ([1]; Purmorphamine 15 mg/kg IP with L-Dopa challenge dose 20 mg/kg IP on day 15): about 40%
- reduction of AIMs ([1]; single dose Purmorphamine 15 mg/kg IP co-injected with L-Dopa 20 mg/kg IP after daily L-Dopa 5 mg/kg IP): 2 fold
- effect on dyskinesia (words) [2]: decrease dyskinesia
- effect on dyskinesia (words) ([2]; listed as purmorphamine): delayed and weaker/blunted induction and reduced expression of dyskinesia
- reduction in expression of established dyskinesia over L-Dopa only controls [2]: roughly 2 fold

SMILES: CNC1CCC(N(Cc2cccc(-c3ccncc3)c2)C(=O)c2sc3ccccc3c2Cl)CC1 (stereo not shown) [SAG]
- LID scores after SAG wash-out ([1]; L-Dopa 5 mg/kg IP daily without SAG, d16 to d34, after 14 days of L-Dopa/SAG): indistinguishable from control groups
- effect of chronic dosing with SAG together with L-Dopa on AIMs ([1]; SAG as adjuvant to daily L-Dopa): reversible, dose dependent build-up of a reduction of abnormal induced movements; also recorded: build-up of a reduction of abnormal induced movements over 7 days
- reduction of dyskinesia ([1]; daily SAG 0.8 mg/kg IP with L-Dopa 5 mg/kg IP, day 12): 45%
- reduction of dyskinesia ([1]; daily SAG 2.5 mg/kg with L-Dopa 5 mg/kg IP, 4 days of dosing): 50%
- reduction of dyskinesia ([1]; daily SAG 7 mg/kg IP with L-Dopa 5 mg/kg IP, day 4): about 50%
- reduction of dyskinesia ([1]; daily SAG 7 mg/kg IP with L-Dopa 5 mg/kg IP, day 14): about 80%
- reduction of AIMS scores over the control group ([1]; daily SAG 10 mg/kg IP with L-Dopa 5 mg/kg IP for 14 days, day 14): greater than 2 fold
- reduction in LIDs compared to controls ([1]; within subject escalation, SAG 15 mg/kg IP, day 51, L-Dopa 20 mg/kg IP): greater than 2 fold
- reduction in 3 paw dyskinesia ([3]; SAG 20 mg/kg IP with L-Dopa 20 mg/kg IP on day 29, vs day 28): roughly 2 fold
- reduction in the display of LID ([3]; SAG 20 mg/kg IP with L-Dopa 25 mg/kg IP on day 21, compared to controls): 2 fold
- effect on AIMs induced by daily L-Dopa [3]: decreases abnormal induced movements
- reduction of dyskinesia score compared to day 20 ([4]; single injection SAG 20 mg/kg IP with L-Dopa on day 22, ratio mutants over controls): about 10 fold
- effect on dyskinesia (words) [2]: decrease dyskinesia; also recorded: delayed and weaker/blunted induction and reduced expression of dyskinesia
- reduction in expression of established dyskinesia over L-Dopa only controls [2]: roughly 2 fold
- reduction in the formation and display of LIDs over L-Dopa only controls ([2]; semi chronic daily dosing with SAG together with L-Dopa): about 70%

SMILES: N[C@@H](Cc1ccc(O)c(O)c1)C(=O)O [L-Dopa]
- increase in LID scores ([1]; daily L-Dopa ramped up to 20 mg/kg IP, day 34 compared to day 27): 3 fold
- formation of LID ([4]; daily L-Dopa 10 mg/kg IP, 16 days, mutants, not in litter controls): formation of LID over time
- contralateral paw use during rearing [5]: > 50%

SMILES: NC12CC3CC(CC(C3)C1)C2 [Amantadine]
- reduction of LID ([3]; amantadine 40 mg/kg IP with L-Dopa 25 mg/kg IP on day 21, did not reach significance): roughly 30%
- inhibition of dyskinesia (Parkinson's Patients): 23%

SMILES: CC1=C2C[C@H]3[C@@H](CC=C4C[C@@H](O)CC[C@@]43C)[C@@H]2CC[C@]12O[C@@H]1C[C@H](C)CN[C@H]1[C@H]2C [cyclopamine]
- effect on AIMs induced by daily L-Dopa [3]: increases abnormal induced movements
- increase in 3-paw dyskinesia ([3]; cyclopamine 5 mg/kg IP with L-Dopa 20 mg/kg IP on day 8, compared to day 7): roughly 3 fold
- dyskinesia score relative to 7 days of L-Dopa only dosing ([3]; daily cyclopamine 5 mg/kg IP with L-Dopa 20 mg/kg IP, d11 compared to d7): 7 fold
- effect on dyskinesia (words) [2]: more rapid induction and stronger expression of dyskinesia
- effect on dyskinesia (words) ([2]; listed as Cyclopamine): increases dyskinesia
- increase of dyskinesia over L-Dopa only controls ([2]; combined across two models, controls set to 1): 70%
